Measurements reported in ChEMBL document CHEMBL3885881, “DrugMatrix”.

Species on record: Rattus norvegicus
Assay: DrugMatrix - Regimen: Daily Repeat
Assay type: toxicity, organism-based, Sprague-Dawley
Design: regimen Daily Repeat, gender Male, age 6-8 weeks
Conditions: in vivo, po, route oral GAVAGE, vehicle 100 % WATER; for ABSOLUTE BASOPHIL / ABSOLUTE EOSINOPHIL / ABSOLUTE LYMPHOCYTE / ABSOLUTE MONOCYTE / ABSOLUTE SEGMENTED NEUTROPHIL / BASOPHIL / EOSINOPHIL / ERYTHROCYTE COUNT / HEMATOCRIT / HEMOGLOBIN / LEUKOCYTE COUNT / LYMPHOCYTE / MEAN CORPUSCULAR HEMOGLOBIN / MEAN CORPUSCULAR HEMOGLOBIN CONCENTRATION / MEAN CORPUSCULAR VOLUME / MONOCYTE / NEUTROPHIL / NUCLEATED RED BLOOD CELLS / PLATELET COUNT: tissue Blood; for ALANINE AMINOTRANSFERASE / ALBUMIN / ALKALINE PHOSPHATASE / ASPARTATE AMINOTRANSFERASE / BLOOD UREA NITROGEN / CARBON DIOXIDE / CHLORIDE / CHOLESTEROL / CREATINE PHOSPHOKINASE / CREATININE / GLUCOSE / LACTATE DEHYDROGENASE / LIPASE / PHOSPHORUS / POTASSIUM / SODIUM / TOTAL BILIRUBIN / TOTAL PROTEIN / URIC ACID: tissue Plasma
[1] = 10 mg/kg, 120 h, dose level Low, time 5 day
[2] = 280 mg/kg, 72 h, dose level High, time 3 day
[3] = 280 mg/kg, 120 h, dose level High, time 5 day

SMILES: NNc1nncc2ccccc12 [HYDRALAZINE]
- ABSOLUTE BASOPHIL [1]: 0 CELLS/uL
- ABSOLUTE EOSINOPHIL [1]: 0 CELLS/uL
- ABSOLUTE LYMPHOCYTE [1]: 12743.33 CELLS/uL
- ABSOLUTE MONOCYTE [1]: 327.33 CELLS/uL
- ABSOLUTE SEGMENTED NEUTROPHIL [1]: 1062.67 CELLS/uL
- BASOPHIL [1]: 0%
- EOSINOPHIL [1]: 0%
- ERYTHROCYTE COUNT [1]: 5.27 x10E6/uL
- HEMATOCRIT [1]: 32.27%
- HEMOGLOBIN [1]: 13.07 G/DL
- LEUKOCYTE COUNT [1]: 14.13 x10E3/uL
- LYMPHOCYTE [1]: 90%
- MEAN CORPUSCULAR HEMOGLOBIN [1]: 24.8 pg
- MEAN CORPUSCULAR HEMOGLOBIN CONCENTRATION [1]: 40.53 G/DL
- MEAN CORPUSCULAR VOLUME [1]: 61.17 fL
- MONOCYTE [1]: 2.33%
- NEUTROPHIL [1]: 7.67%
- NUCLEATED RED BLOOD CELLS [1]: 0 /100WBC
- PLATELET COUNT [1]: 1239 x10E3/uL
- ALANINE AMINOTRANSFERASE [1]: 50 u/L
- ALBUMIN [1]: 4.2 G/DL
- ALKALINE PHOSPHATASE [1]: 452.67 u/L
- ASPARTATE AMINOTRANSFERASE [1]: 79.67 u/L
- BLOOD UREA NITROGEN [1]: 16.33 mg/dL
- CARBON DIOXIDE [1]: 29.67 mmol/L
- CHLORIDE [1]: 100.33 MEQ/L
- CHOLESTEROL [1]: 68 mg/dL
- CREATINE PHOSPHOKINASE [1]: 219.67 u/L
- CREATININE [1]: 0.15 mg/dL
- GLUCOSE [1]: 131.33 mg/dL
- LACTATE DEHYDROGENASE [1]: 184 u/L
- LIPASE [1]: 11 u/L
- PHOSPHORUS [1]: 10.8 mg/dL
- POTASSIUM [1]: 5.91 MEQ/L
- SODIUM [1]: 142.03 MEQ/L
- TOTAL BILIRUBIN [1]: 0.13 mg/dL
- TOTAL PROTEIN [1]: 5.73 G/DL
- URIC ACID [1]: 1.13 mg/dL
- ABSOLUTE BASOPHIL [2]: 0 CELLS/uL
- ABSOLUTE EOSINOPHIL [2]: 0 CELLS/uL
- ABSOLUTE LYMPHOCYTE [2]: 9108 CELLS/uL
- ABSOLUTE MONOCYTE [2]: 0 CELLS/uL
- ABSOLUTE SEGMENTED NEUTROPHIL [2]: 792 CELLS/uL
- BASOPHIL [2]: 0%
- EOSINOPHIL [2]: 0%
- ERYTHROCYTE COUNT [2]: 5.62 x10E6/uL
- HEMATOCRIT [2]: 33.4%
- HEMOGLOBIN [2]: 13 G/DL
- LEUKOCYTE COUNT [2]: 9.9 x10E3/uL
- LYMPHOCYTE [2]: 92%
- MEAN CORPUSCULAR HEMOGLOBIN [2]: 23.1 pg
- MEAN CORPUSCULAR HEMOGLOBIN CONCENTRATION [2]: 38.9 G/DL
- MEAN CORPUSCULAR VOLUME [2]: 59.4 fL
- MONOCYTE [2]: 0%
- NEUTROPHIL [2]: 8%
- NUCLEATED RED BLOOD CELLS [2]: 0 /100WBC
- PLATELET COUNT [2]: 1418 x10E3/uL
- ALANINE AMINOTRANSFERASE [2]: 36 u/L
- ALBUMIN [2]: 4.1 G/DL
- ALKALINE PHOSPHATASE [2]: 257 u/L
- ASPARTATE AMINOTRANSFERASE [2]: 59 u/L
- BLOOD UREA NITROGEN [2]: 21 mg/dL
- CARBON DIOXIDE [2]: 32 mmol/L
- CHLORIDE [2]: 99 MEQ/L
- CHOLESTEROL [2]: 74 mg/dL
- CREATINE PHOSPHOKINASE [2]: 207 u/L
- CREATININE [2]: 0.14 mg/dL
- GLUCOSE [2]: 142 mg/dL
- LACTATE DEHYDROGENASE [2]: 151 u/L
- LIPASE [2]: 10 u/L
- PHOSPHORUS [2]: 10.8 mg/dL
- POTASSIUM [2]: 5.22 MEQ/L
- SODIUM [2]: 139.9 MEQ/L
- TOTAL BILIRUBIN [2]: 0.1 mg/dL
- TOTAL PROTEIN [2]: 5.4 G/DL
- URIC ACID [2]: 1.3 mg/dL
- ABSOLUTE BASOPHIL [3]: 0 CELLS/uL
- ABSOLUTE EOSINOPHIL [3]: 0 CELLS/uL
- ABSOLUTE LYMPHOCYTE [3]: 8493.67 CELLS/uL
- ABSOLUTE MONOCYTE [3]: 293 CELLS/uL
- ABSOLUTE SEGMENTED NEUTROPHIL [3]: 980 CELLS/uL
- BASOPHIL [3]: 0%
- EOSINOPHIL [3]: 0%
- ERYTHROCYTE COUNT [3]: 5.59 x10E6/uL
- HEMATOCRIT [3]: 33.5%
- HEMOGLOBIN [3]: 13.07 G/DL
- LEUKOCYTE COUNT [3]: 9.77 x10E3/uL
- LYMPHOCYTE [3]: 87.67%
- MEAN CORPUSCULAR HEMOGLOBIN [3]: 23.37 pg
- MEAN CORPUSCULAR HEMOGLOBIN CONCENTRATION [3]: 39 G/DL
- MEAN CORPUSCULAR VOLUME [3]: 59.97 fL
- MONOCYTE [3]: 3%
- NEUTROPHIL [3]: 9.33%
- NUCLEATED RED BLOOD CELLS [3]: 0 /100WBC
- PLATELET COUNT [3]: 1213 x10E3/uL
- ALANINE AMINOTRANSFERASE [3]: 40.33 u/L
- ALBUMIN [3]: 4.2 G/DL
- ALKALINE PHOSPHATASE [3]: 309.67 u/L
- ASPARTATE AMINOTRANSFERASE [3]: 58.67 u/L
- BLOOD UREA NITROGEN [3]: 18.33 mg/dL
- CARBON DIOXIDE [3]: 25.67 mmol/L
- CHLORIDE [3]: 101 MEQ/L
- CHOLESTEROL [3]: 65.33 mg/dL
- CREATINE PHOSPHOKINASE [3]: 302.33 u/L
- CREATININE [3]: 0.16 mg/dL
- GLUCOSE [3]: 143 mg/dL
- LACTATE DEHYDROGENASE [3]: 125 u/L
- LIPASE [3]: 11.33 u/L
- PHOSPHORUS [3]: 10.47 mg/dL
- POTASSIUM [3]: 5.72 MEQ/L
- SODIUM [3]: 140.6 MEQ/L
- TOTAL BILIRUBIN [3]: 0.17 mg/dL
- TOTAL PROTEIN [3]: 5.47 G/DL
- URIC ACID [3]: 1.43 mg/dL
